{"source": "patent US8263613B2", "about": "“Salts, prodrugs and polymorphs of fab I inhibitors” (Affinium Pharmaceuticals, Inc., priority 2007, dated 2012)", "key": {"[1]": {"test": "Pharmacokinetic study in male rats, single oral dose in 80% PEG400", "conditions": "rat, in vivo"}, "[2]": {"test_system": "Staphylococcus aureus ATCC 29213", "test": "Mouse thigh abscess infection model", "type": "in vivo", "conditions": "for ED50: Staphylococcus aureus, ATCC29213; for ED50 / ED80 / Static dose: mice, oral, Inhibitory Effect Sigmoid Emax Model fit; for Average Change logCFU/thigh: neutropenic mice, 6 hours post dose, vs time 0 controls", "protocol": "Compound A (free base) unmilled, and the tosylate salt of Compound A milled were tested in the same mouse thigh abscess model following single oral doses in 0.5% carboxymethyl cellulose. Mice (6 per dosing group) were rendered neutropentic, and the thigh of each mouse was injected with 1×10^5 colony forming units (CFU) of Staphylococcus aureus ATCC 29213. Two hours post infection, mice were dosed with the drug orally, and at 6 hours post dose, bacterial viable counts where determined from the thighs of all the mice. Efficacy was calculated as the average change in CFU/thigh compared to time 0 (time of dosing) controls."}, "[3]": {"test": "Oral pharmacokinetic study in male rats (oral gavage)", "type": "in vivo, rat", "conditions": "for AUC(0-t) / Cmax: male, CD, rat, po", "protocol": "Compound A (free base) and B (toslyate monohydrate salt of compound A) was administered to male rats, strain CD®, via oral gavage using 1% Poloxamer 407 or 0.5% carboxymethyl cellulose (CMC) as the vehicle (Table 1). All doses were calculated as free base equivalents.\nFor each dosing group blood was collected from 3 animals at each of the following time points: 0, 0.5, 1, 2, 4, 6, 8, 10, 12, 16, 24, and 48 hours post dose. Plasma was prepared using standard techniques with sodium heparin as anti-coagulant. The Compound A and B plasma concentrations were determined using a GLP-validated LC/MS/MS bioanalytical method. Pharmacokinetic analyses were performed using PK Solutions 2.0™ or WinNonLin 5.1."}, "[4]": {"test": "Solubility in cyclodextrins", "type": "physicochemical", "conditions": "for solubility: aqueous with cosolvent or surfactant or cyclodextrin, thermodynamic from solid"}, "[5]": {"conditions": "male, po, 30 mg/kg, single oral dose 30 mg/kg in 80% PEG400, particle state Milled"}, "[6]": {"conditions": "single oral dose 0.3 mg/kg in 0.5% carboxymethyl cellulose"}, "[7]": {"conditions": "single oral dose 1 mg/kg in 0.5% carboxymethyl cellulose"}, "[8]": {"conditions": "single oral dose 3 mg/kg in 0.5% carboxymethyl cellulose"}, "[9]": {"conditions": "single oral dose 10 mg/kg in 0.5% carboxymethyl cellulose"}, "[10]": {"conditions": "single oral dose 30 mg/kg in 0.5% carboxymethyl cellulose"}, "[11]": {"conditions": "plasma, 10 mg/kg, 10 mg/kg (free base equivalents), 0.5% CMC"}, "[12]": {"conditions": "plasma, 10 mg/kg, 10 mg/kg (free base equivalents), 1% Poloxamer 407"}, "[13]": {"conditions": "plasma, 30 mg/kg, 30 mg/kg (free base equivalents), 0.5% CMC"}, "[14]": {"conditions": "plasma, 75 mg/kg, 75 mg/kg (free base equivalents), 0.5% CMC"}, "[15]": {"conditions": "male, po, 30 mg/kg, single oral dose 30 mg/kg in 80% PEG400, particle state Unmilled"}, "[16]": {"conditions": "in vivo, 10 mg/kg, 10 mg/kg (free base equivalents), 0.5% CMC"}, "[17]": {"conditions": "in vivo, 10 mg/kg, 10 mg/kg (free base equivalents), 1% Poloxamer 407"}, "[18]": {"conditions": "in vivo, 30 mg/kg, 30 mg/kg (free base equivalents), 0.5% CMC"}, "[19]": {"conditions": "in vivo, 75 mg/kg, 75 mg/kg (free base equivalents), 0.5% CMC"}, "[20]": {"conditions": "single oral dose 30 mg/kg in 80% PEG400, particle state Unmilled"}}, "note": "Where two headings read alike, the source gives them in different places."}
{"compound": "CS(=O)(=O)O.Cc1c(CN(C)C(=O)/C=C/c2cnc3c(c2)CCC(=O)N3)oc2ccccc12", "note": "[Mesylate, (E)-N-methyl-N-((3-methylbenzofuran-2-yl)methyl)-3-(7-oxo-5,6,7,8-tetrahydro-1,8-naphthyridin-3-yl)acrylamide methane sulfonate]", "values": [{"measurement": "AUC(0-inf)", "setting": "[1]; [5]", "result": 6040, "unit": "ng·h/mL"}, {"measurement": "AUC(0-t)", "setting": "[1]; [5]", "result": 5770, "unit": "ng·h/mL"}, {"measurement": "Cmax", "setting": "[1]; [5]", "result": 884, "unit": "ng/mL"}, {"measurement": "half-life", "setting": "[1]; [5]", "result": 5, "unit": "h"}]}
{"compound": "Cc1c(CN(C)C(=O)/C=C/c2cnc3c(c2)CCC(=O)N3)oc2ccccc12.Cc1ccc(S(=O)(=O)O)cc1", "note": "[Tosylate, (E)-N-methyl-N-((3-methylbenzofuran-2-yl)methyl)-3-(7-oxo-5,6,7,8-tetrahydro-1,8-naphthyridin-3-yl)acrylamide p-toluene sulfonate]", "values": [{"measurement": "ED50", "setting": "[2]", "result": 1.3, "unit": "mg/kg"}, {"measurement": "ED80", "setting": "[2]", "result": 3.4, "unit": "mg/kg"}, {"measurement": "Static dose", "setting": "[2]", "result": 2.4, "unit": "mg/kg"}, {"measurement": "Average Change logCFU/thigh", "setting": "[2]; [6]", "result": 1.31, "unit": "logCFU/thigh"}, {"measurement": "Average Change logCFU/thigh", "setting": "[2]; [7]", "result": 1.08, "unit": "logCFU/thigh"}, {"measurement": "Average Change logCFU/thigh", "setting": "[2]; [8]", "result": "−0.42", "unit": "logCFU/thigh"}, {"measurement": "Average Change logCFU/thigh", "setting": "[2]; [9]", "result": "−0.62", "unit": "logCFU/thigh"}, {"measurement": "Average Change logCFU/thigh", "setting": "[2]; [10]", "result": "−0.77", "unit": "logCFU/thigh"}, {"measurement": "AUC(0-inf)", "setting": "[1]; [5]", "result": 9510, "unit": "ng·h/mL"}, {"measurement": "AUC(0-t)", "setting": "[1]; [5]", "result": 9460, "unit": "ng·h/mL"}, {"measurement": "Cmax", "setting": "[1]; [5]", "result": 1610, "unit": "ng/mL"}, {"measurement": "half-life", "setting": "[1]; [5]", "result": 3.5, "unit": "h"}]}
{"compound": "Cc1c(CN(C)C(=O)/C=C/c2cnc3c(c2)CCC(=O)N3)oc2ccccc12", "note": "[Free base, (E)-N-methyl-N-((3-methylbenzofuran-2-yl)methyl)-3-(7-oxo-5,6,7,8-tetrahydro-1,8-naphthyridin-3-yl)acrylamide]", "values": [{"measurement": "AUC(0-t)", "setting": "[3]; [11]", "result": 980, "unit": "ng·h/mL"}, {"measurement": "Cmax", "setting": "[3]; [11]", "result": 163, "unit": "ng/mL"}, {"measurement": "AUC(0-t)", "setting": "[3]; [12]", "result": 883, "unit": "ng·h/mL"}, {"measurement": "Cmax", "setting": "[3]; [12]", "result": 157, "unit": "ng/mL"}, {"measurement": "AUC(0-t)", "setting": "[3]; [13]", "result": 1620, "unit": "ng·h/mL"}, {"measurement": "Cmax", "setting": "[3]; [13]", "result": 176, "unit": "ng/mL"}, {"measurement": "AUC(0-t)", "setting": "[3]; [14]", "result": 2370, "unit": "ng·h/mL"}, {"measurement": "Cmax", "setting": "[3]; [14]", "result": 246, "unit": "ng/mL"}, {"measurement": "ED50", "setting": "[2]", "result": 4, "unit": "mg/kg"}, {"measurement": "ED80", "setting": "[2]", "result": 8.8, "unit": "mg/kg"}, {"measurement": "Static dose", "setting": "[2]", "result": 10.5, "unit": "mg/kg"}, {"measurement": "Average Change logCFU/thigh", "setting": "[2]; [6]", "result": 1.6, "unit": "logCFU/thigh"}, {"measurement": "Average Change logCFU/thigh", "setting": "[2]; [7]", "result": 1.35, "unit": "logCFU/thigh"}, {"measurement": "Average Change logCFU/thigh", "setting": "[2]; [8]", "result": 0.3, "unit": "logCFU/thigh"}, {"measurement": "Average Change logCFU/thigh", "setting": "[2]; [9]", "result": 0.36, "unit": "logCFU/thigh"}, {"measurement": "Average Change logCFU/thigh", "setting": "[2]; [10]", "result": "−0.29", "unit": "logCFU/thigh"}, {"measurement": "AUC(0-inf)", "setting": "[1]; [5]", "result": 6570, "unit": "ng·h/mL"}, {"measurement": "AUC(0-t)", "setting": "[1]; [5]", "result": 6370, "unit": "ng·h/mL"}, {"measurement": "Cmax", "setting": "[1]; [5]", "result": 1970, "unit": "ng/mL"}, {"measurement": "half-life", "setting": "[1]; [5]", "result": 5.5, "unit": "h"}, {"measurement": "AUC(0-inf)", "setting": "[1]; [15]", "result": 1260, "unit": "ng·h/mL"}, {"measurement": "AUC(0-t)", "setting": "[1]; [15]", "result": 1160, "unit": "ng·h/mL"}, {"measurement": "Cmax", "setting": "[1]; [15]", "result": 421, "unit": "ng/mL"}, {"measurement": "half-life", "setting": "[1]; [15]", "result": 2, "unit": "h"}, {"measurement": "solubility", "setting": "[4]; 10% hydroxypropyl beta-cyclodextrin, cyclodextrin concentration 10%, shake-flask technique, read-out: Solubility in Hydroxypropyl Beta-Cyclodextrin", "result": 20, "unit": "µg/mL"}, {"measurement": "solubility", "setting": "[4]; 10% hydroxypropyl beta-cyclodextrin, cyclodextrin concentration 10%, evaporating an ethanol/water/DMA blend of cyclodextrin and API and reconstituting with water, read-out: Solubility in Hydroxypropyl Beta-Cyclodextrin", "result": 9, "unit": "µg/mL"}, {"measurement": "solubility", "setting": "[4]; 10% sulfobutyl ether beta-cyclodextrin, cyclodextrin concentration 10%, read-out: Solubility in Sulfobutyl Ether Beta-Cyclodextrin", "result": 7, "unit": "µg/mL"}]}
{"compound": "Cc1c(CN(C)C(=O)/C=C/c2cnc3c(c2)CCC(=O)N3)oc2ccccc12.Cc1ccc(S(=O)(=O)O)cc1.O", "note": "[Tosylate monohydrate milled, (E)-N-methyl-N-((3-methylbenzofuran-2-yl)methyl)-3-(7-oxo-5,6,7,8-tetrahydro-1,8-naphthyridin-3-yl)acrylamide Tosylate Monohydrate]", "values": [{"measurement": "Ratio of tosylate monohyrate/free base AUClast", "setting": "[3]; 10 mg/kg, 0.5% CMC", "result": 2.1}, {"measurement": "Ratio of tosylate monohyrate/free base Cmax", "setting": "[3]; 10 mg/kg, 0.5% CMC", "result": 2.1}, {"measurement": "Ratio of tosylate monohyrate/free base AUClast", "setting": "[3]; 10 mg/kg, 1% Poloxamer 407", "result": 3.0}, {"measurement": "Ratio of tosylate monohyrate/free base Cmax", "setting": "[3]; 10 mg/kg, 1% Poloxamer 407", "result": 2.2}, {"measurement": "Ratio of tosylate monohyrate/free base AUClast", "setting": "[3]; 30 mg/kg, 0.5% CMC", "result": 2.3}, {"measurement": "Ratio of tosylate monohyrate/free base Cmax", "setting": "[3]; 30 mg/kg, 0.5% CMC", "result": 2.5}, {"measurement": "Ratio of tosylate monohyrate/free base AUClast", "setting": "[3]; 75 mg/kg, 0.5% CMC", "result": 1.8}, {"measurement": "Ratio of tosylate monohyrate/free base Cmax", "setting": "[3]; 75 mg/kg, 0.5% CMC", "result": 2.4}, {"measurement": "AUC(0-t)", "setting": "[3]; [16]", "result": 2040, "unit": "ng·h/mL"}, {"measurement": "Cmax", "setting": "[3]; [16]", "result": 347, "unit": "ng/mL"}, {"measurement": "AUC(0-t)", "setting": "[3]; [17]", "result": 2660, "unit": "ng·h/mL"}, {"measurement": "Cmax", "setting": "[3]; [17]", "result": 348, "unit": "ng/mL"}, {"measurement": "AUC(0-t)", "setting": "[3]; [18]", "result": 3680, "unit": "ng·h/mL"}, {"measurement": "Cmax", "setting": "[3]; [18]", "result": 434, "unit": "ng/mL"}, {"measurement": "AUC(0-t)", "setting": "[3]; [19]", "result": 4260, "unit": "ng·h/mL"}, {"measurement": "Cmax", "setting": "[3]; [19]", "result": 595, "unit": "ng/mL"}, {"measurement": "solubility", "setting": "[4]; cyclodextrin concentration 10%, read-out: Solubility in Hydroxypropyl Beta-Cyclodextrin", "result": 26, "unit": "µg/mL"}, {"measurement": "solubility", "setting": "[4]; cyclodextrin concentration 10%, read-out: Solubility in Sulfobutyl Ether Beta-Cyclodextrin", "result": 67, "unit": "µg/mL"}, {"measurement": "solubility", "setting": "[4]; cyclodextrin concentration 40%, read-out: Solubility in Hydroxypropyl Beta-Cyclodextrin", "result": 370, "unit": "µg/mL"}, {"measurement": "solubility", "setting": "[4]; cyclodextrin concentration 40%, read-out: Solubility in Sulfobutyl Ether Beta-Cyclodextrin", "result": 4000, "unit": "µg/mL"}, {"measurement": "Solubility relative to the free base milled form", "setting": "[4]; sulfobutyl ether beta-cyclodextrin, cyclodextrin concentration 10%", "result": "approximately 10 fold"}]}
{"compound": "Cc1c(CN(C)C(=O)/C=C/c2cnc3c(c2)CCC(=O)N3)oc2ccccc12.O=S(=O)(O)O", "note": "[Sulfate, (E)-N-methyl-N-((3-methylbenzofuran-2-yl)methyl)-3-(7-oxo-5,6,7,8-tetrahydro-1,8-naphthyridin-3-yl)acrylamide sulfate]", "values": [{"measurement": "AUC(0-inf)", "setting": "[1]; [20]", "result": 9970, "unit": "ng·h/mL"}, {"measurement": "AUC(0-t)", "setting": "[1]; [20]", "result": 9480, "unit": "ng·h/mL"}, {"measurement": "Cmax", "setting": "[1]; [20]", "result": 1940, "unit": "ng/mL"}, {"measurement": "half-life", "setting": "[1]; [20]", "result": 5.7, "unit": "h"}]}
